IC50 data for 38 compounds are collected here from patent publication US20150087627A1, “COMBINATION OF KINASE INHIBITORS AND USES THEREOF” (Intellikine LLC, priority 2011, published 2015).

Where two headings read alike, the source gives them in different places.

Holding throughout (assay type): biochemical
The target in assay [1] is T1, PI3K δ (Homo sapiens, UniProt O00329).
T1 construct: purchased Upstate / Millipore Corporation
In words: PI 3-Kinase (human) HTRF assay, PI3K δ. Conditions: read-out: PI3K δ IC50. A general note: Time-resolved FRET reads energy transfer from a long-lived donor to a nearby acceptor.

Assay [2] addresses T2, PI3K β (p110β/p85α) (Homo sapiens, UniProt P42338).
T2 construct: purchased Upstate / Millipore Corporation
In words: PI 3-Kinase (human) HTRF assay, PI3K β. Conditions: read-out: PI3K β IC50.

Assay [3] deals with T3, PI3K γ (p110γ) (Homo sapiens, UniProt P48736).
T3 construct: purchased Upstate / Millipore Corporation
T3 sequence (P48736 whole entry): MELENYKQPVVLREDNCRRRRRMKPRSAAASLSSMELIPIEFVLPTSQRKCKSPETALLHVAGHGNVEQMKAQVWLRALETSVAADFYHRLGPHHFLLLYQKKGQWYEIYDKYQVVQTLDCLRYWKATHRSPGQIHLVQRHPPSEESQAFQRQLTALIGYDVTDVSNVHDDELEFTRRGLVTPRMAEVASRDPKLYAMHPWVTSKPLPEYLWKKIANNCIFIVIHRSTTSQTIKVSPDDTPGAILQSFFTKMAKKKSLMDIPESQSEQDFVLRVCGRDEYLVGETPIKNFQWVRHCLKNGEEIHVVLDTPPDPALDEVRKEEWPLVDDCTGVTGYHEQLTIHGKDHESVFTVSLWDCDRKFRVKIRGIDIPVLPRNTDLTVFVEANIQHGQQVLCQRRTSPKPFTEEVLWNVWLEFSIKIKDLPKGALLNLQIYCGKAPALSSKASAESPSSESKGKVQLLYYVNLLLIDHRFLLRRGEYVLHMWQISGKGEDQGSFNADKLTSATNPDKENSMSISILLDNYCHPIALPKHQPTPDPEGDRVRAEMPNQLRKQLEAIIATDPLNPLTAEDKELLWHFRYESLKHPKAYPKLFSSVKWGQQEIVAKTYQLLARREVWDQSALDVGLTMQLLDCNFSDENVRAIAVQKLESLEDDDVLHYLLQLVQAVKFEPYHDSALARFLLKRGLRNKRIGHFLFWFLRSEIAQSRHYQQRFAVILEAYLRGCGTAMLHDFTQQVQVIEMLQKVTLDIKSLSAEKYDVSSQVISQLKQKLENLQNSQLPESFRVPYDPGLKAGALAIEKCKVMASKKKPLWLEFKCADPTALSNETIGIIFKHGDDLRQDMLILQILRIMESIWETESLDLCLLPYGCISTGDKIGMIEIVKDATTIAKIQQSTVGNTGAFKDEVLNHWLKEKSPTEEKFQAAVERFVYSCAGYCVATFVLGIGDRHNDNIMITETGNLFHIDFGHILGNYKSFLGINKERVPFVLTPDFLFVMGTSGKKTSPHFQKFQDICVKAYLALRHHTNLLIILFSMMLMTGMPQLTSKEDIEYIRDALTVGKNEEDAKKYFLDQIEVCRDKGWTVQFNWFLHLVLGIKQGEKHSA
In words: PI 3-Kinase (human) HTRF assay, PI3K γ.

The target of assay [4] is T4, PI3K α (p110α/p85α) (Homo sapiens, UniProt P42336).
T4 construct: purchased Upstate / Millipore Corporation
T4 sequence (P42336 whole entry): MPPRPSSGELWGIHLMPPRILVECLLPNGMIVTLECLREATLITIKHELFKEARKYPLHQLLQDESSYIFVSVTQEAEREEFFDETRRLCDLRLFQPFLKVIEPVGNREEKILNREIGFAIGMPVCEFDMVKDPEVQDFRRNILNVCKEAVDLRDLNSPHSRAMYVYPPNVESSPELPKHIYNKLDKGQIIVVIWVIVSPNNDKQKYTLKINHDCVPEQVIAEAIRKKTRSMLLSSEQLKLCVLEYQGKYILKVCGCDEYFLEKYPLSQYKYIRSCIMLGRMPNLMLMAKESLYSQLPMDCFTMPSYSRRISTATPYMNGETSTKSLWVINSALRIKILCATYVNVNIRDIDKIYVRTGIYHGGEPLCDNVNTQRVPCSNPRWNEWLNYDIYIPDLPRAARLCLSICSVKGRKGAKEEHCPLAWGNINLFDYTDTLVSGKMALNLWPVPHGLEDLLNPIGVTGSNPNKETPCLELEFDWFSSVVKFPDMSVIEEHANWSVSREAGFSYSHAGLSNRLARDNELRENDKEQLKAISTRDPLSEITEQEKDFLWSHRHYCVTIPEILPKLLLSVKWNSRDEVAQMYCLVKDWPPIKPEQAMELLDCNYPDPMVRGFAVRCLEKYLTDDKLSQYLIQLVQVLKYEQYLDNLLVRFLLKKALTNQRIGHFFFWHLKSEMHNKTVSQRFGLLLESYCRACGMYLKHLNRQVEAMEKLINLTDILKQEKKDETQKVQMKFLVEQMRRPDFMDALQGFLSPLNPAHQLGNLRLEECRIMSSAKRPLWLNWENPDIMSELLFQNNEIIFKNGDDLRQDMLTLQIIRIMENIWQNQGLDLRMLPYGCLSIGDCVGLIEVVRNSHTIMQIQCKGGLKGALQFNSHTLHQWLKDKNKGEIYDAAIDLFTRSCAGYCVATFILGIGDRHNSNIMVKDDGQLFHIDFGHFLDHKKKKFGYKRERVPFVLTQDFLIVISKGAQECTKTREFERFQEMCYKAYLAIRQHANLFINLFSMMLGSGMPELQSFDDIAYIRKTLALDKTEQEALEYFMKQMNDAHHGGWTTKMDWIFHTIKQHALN
T4 sequence (P27986 whole entry partner): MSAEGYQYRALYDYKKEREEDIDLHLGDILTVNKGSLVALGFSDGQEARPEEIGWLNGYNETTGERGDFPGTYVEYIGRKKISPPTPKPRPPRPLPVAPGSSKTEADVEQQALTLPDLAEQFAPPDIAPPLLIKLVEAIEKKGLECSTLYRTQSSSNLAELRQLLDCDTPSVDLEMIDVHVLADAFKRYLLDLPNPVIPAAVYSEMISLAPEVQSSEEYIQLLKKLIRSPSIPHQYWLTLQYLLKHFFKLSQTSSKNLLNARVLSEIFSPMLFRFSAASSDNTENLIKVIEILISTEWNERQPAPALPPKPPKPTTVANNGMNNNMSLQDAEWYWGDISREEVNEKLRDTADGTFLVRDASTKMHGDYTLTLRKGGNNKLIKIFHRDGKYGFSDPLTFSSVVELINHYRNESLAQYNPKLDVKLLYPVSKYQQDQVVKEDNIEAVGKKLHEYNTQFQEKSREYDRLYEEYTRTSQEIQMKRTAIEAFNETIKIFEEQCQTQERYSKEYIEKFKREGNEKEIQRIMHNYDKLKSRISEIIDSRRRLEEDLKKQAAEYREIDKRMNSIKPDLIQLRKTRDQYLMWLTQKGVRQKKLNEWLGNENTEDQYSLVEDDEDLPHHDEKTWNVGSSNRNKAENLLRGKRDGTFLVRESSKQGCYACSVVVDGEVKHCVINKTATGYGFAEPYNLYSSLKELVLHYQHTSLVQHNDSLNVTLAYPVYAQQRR
In words: PI 3-Kinase (human) HTRF assay, PI3K α. Conditions: read-out: PI3K α IC50.

T2 sequence (P42338 whole entry): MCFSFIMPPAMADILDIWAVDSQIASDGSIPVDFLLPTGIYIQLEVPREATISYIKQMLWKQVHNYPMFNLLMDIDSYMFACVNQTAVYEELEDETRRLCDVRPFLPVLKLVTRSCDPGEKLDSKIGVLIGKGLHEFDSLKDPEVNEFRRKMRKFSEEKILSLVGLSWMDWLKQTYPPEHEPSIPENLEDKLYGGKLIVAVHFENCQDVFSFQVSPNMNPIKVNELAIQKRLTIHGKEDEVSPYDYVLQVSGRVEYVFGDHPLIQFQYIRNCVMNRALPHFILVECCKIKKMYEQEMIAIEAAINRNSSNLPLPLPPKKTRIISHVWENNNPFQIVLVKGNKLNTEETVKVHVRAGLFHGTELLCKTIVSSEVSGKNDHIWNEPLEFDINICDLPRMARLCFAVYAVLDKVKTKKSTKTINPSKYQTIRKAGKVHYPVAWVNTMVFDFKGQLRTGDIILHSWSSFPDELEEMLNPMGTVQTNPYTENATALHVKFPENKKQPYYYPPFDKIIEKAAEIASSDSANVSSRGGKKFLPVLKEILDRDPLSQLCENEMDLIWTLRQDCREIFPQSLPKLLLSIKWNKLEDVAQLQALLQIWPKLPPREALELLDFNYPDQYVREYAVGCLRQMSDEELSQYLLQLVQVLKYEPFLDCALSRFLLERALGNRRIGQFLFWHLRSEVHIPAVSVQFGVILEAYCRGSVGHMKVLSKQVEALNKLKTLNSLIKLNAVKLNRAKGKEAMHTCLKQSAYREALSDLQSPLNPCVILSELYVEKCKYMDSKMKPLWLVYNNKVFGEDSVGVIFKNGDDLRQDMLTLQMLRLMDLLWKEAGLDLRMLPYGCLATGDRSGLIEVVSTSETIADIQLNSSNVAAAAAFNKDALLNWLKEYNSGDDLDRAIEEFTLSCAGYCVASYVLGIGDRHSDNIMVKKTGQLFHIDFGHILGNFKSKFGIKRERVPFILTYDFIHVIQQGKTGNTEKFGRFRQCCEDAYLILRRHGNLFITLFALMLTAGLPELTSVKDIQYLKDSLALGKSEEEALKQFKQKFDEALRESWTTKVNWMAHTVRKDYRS
T2 sequence (P27986 whole entry partner): as the sequence (P27986 whole entry partner) above
T1 sequence (O00329 whole entry): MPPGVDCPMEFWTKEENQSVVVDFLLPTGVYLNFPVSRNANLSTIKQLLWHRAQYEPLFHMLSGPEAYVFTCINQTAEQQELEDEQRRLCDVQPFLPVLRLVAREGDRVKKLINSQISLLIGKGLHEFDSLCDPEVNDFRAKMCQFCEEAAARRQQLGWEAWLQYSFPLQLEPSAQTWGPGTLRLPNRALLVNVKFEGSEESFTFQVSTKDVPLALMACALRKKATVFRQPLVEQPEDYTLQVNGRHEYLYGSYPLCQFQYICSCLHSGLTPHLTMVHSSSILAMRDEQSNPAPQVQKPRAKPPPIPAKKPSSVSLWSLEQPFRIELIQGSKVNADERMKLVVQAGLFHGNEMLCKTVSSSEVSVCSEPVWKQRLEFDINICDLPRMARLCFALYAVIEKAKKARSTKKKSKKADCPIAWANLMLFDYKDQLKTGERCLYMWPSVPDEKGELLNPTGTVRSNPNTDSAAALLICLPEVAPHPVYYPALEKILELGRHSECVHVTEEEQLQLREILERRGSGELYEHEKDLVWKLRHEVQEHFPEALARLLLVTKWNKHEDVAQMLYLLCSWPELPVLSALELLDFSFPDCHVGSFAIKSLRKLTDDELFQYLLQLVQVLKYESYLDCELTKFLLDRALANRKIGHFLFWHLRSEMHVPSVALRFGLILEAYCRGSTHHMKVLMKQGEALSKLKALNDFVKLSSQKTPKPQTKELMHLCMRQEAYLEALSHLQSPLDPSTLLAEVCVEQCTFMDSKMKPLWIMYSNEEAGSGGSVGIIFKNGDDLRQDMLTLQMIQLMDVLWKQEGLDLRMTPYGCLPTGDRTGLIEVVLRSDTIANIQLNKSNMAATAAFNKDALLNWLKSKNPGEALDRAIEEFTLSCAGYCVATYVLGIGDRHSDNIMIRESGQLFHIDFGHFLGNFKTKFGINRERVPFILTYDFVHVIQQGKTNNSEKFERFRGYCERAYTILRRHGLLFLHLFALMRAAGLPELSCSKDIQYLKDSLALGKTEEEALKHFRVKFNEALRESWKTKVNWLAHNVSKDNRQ
T1 sequence (P27986 whole entry partner): as the sequence (P27986 whole entry partner) above

By IC50 is commonly meant the concentration that inhibits the measured activity by half. In the case of `CCN1CCN(c2cnc3ccc(-c4ccc5oc(N)nc5c4)cc3n2)C(=O)C1` [Compound 391], the half-inhibitory concentration (IC50) in assay [1] is above 10 µM; in assay [2], above 10 µM; in assay [3] (read-out: PI3K γ IC50), above 10000 nM; in assay [4] it was below 10 µM.

For `CN1CCN(C(=O)c2cnn3ccc(-c4ccc5oc(N)nc5c4)cc23)CC1` [Compound 380], the concentration for half-maximal inhibition (IC50) is above 10 µM in assay [1], below 10 µM in assay [2], below 10000 nM in assay [3] (read-out: PI3K γ IC50) and below 1 µM in assay [4].

Turning to `Nc1nc2ccc(-c3ccc4nnc(-c5cccnc5)n4c3)cc2o1` [Compound 301], the half-maximal inhibitory concentration (IC50) is above 10 µM in assay [1], below 10 µM in assay [2], above 10000 nM in assay [3] (read-out: PI3K γ IC50) and below 10 µM in assay [4].

Take `C[C@@H]1COCCN1C(=O)c1cnc2ccc(-c3ccc4oc(N)nc4c3)cn12` [Compound 495]: the half-inhibitory concentration (IC50) in assay [1] is above 10 µM; in assay [2], below 10 µM; in assay [3] (read-out: PI3K γ IC50) it was below 1000 nM; in assay [4], below 0.1 µM.

For the compound `Nc1ncc(-c2cnc3ccc(-c4ccc5oc(N)nc5c4)cc3n2)cn1` [Compound 210], the concentration for half-maximal inhibition (IC50) was above 10 µM in assay [1], above 10 µM in assay [2], above 10000 nM in assay [3] (read-out: PI3K γ IC50) and below 1 µM in assay [4].

`CC1CN(C(=O)c2cnc3ccc(-c4ccc5oc(N)nc5c4)cn23)CC(C)N1` (centres unmarked) [Compound 142]: the IC50 in assay [1] is above 10 µM; in assay [2], above 10 µM; in assay [3] (read-out: PI3K γ IC50) it was above 10000 nM; in assay [4], below 10 µM.

On to `Nc1nc2cc(-c3ccc4ncc(C(=O)N5CCn6cncc6C5)n4c3)ccc2o1` [Compound 493], for which the IC50 is above 10 µM in assay [1], below 1 µM in assay [2], below 10000 nM in assay [3] (read-out: PI3K γ IC50) and below 0.1 µM in assay [4].

Regarding `Nc1nc2ccc(-c3ccc4nc(N)oc4c3)cc2o1` [Compound 246], the IC50 in assay [1] is above 10 µM; in assay [2], above 10 µM; in assay [3] (read-out: PI3K γ IC50), above 10000 nM; in assay [4] it was above 10 µM.

For the compound `Cc1cn(C2CN(c3cnc4ccc(-c5ccc6oc(N)nc6c5)cc4n3)C2)cn1` [Compound 339], the IC50 was below 1 µM in assay [1], below 1 µM in assay [2], below 1000 nM in assay [3] (read-out: PI3K γ IC50) and below 0.1 µM in assay [4].

As to `CN1CCN(C(=O)c2cnc3ccc(-c4ccc5oc(N)nc5c4)cc3n2)CC1` [Compound 157], the 50% inhibitory concentration (IC50) was above 10 µM in assay [1], above 10 µM in assay [2], above 10000 nM in assay [3] (read-out: PI3K γ IC50) and below 10 µM in assay [4].

On to `CC(C)N1CCN(c2cnc3ccc(-c4ccc5oc(N)nc5c4)cc3n2)CC1` [Compound 84], for which the half-maximal inhibitory concentration (IC50) in assay [1] was below 1 µM; in assay [2] it was below 0.1 µM; in assay [3] (read-out: PI3K γ IC50), below 100 nM; in assay [4] it was below 0.1 µM.

For `C[C@H]1CN(c2cnc3ccc(-c4ccc5oc(N)nc5c4)cc3c2)CCN1` [Compound 396], the IC50 in assay [1] was above 10 µM; in assay [2] it was below 0.1 µM; in assay [3] (read-out: PI3K γ IC50) it was below 10000 nM; in assay [4], below 0.1 µM.

`O=C(c1cnc2ccc(-c3cncc(NS(=O)(=O)c4ccccc4)c3)cn12)N1CCOCC1` [Compound 424]: the IC50 in assay [1] is below 10 µM; in assay [2], above 10 µM; in assay [3] (read-out: PI3K γ IC50), below 1000 nM; in assay [4] it was below 1 µM.

With `Nc1ncc(-c2ccc3ncc(C(=O)N4CCOCC4)n3c2)cc1C(F)(F)F` [Compound 410], the IC50 in assay [1] was above 10 µM; in assay [2], above 10 µM; in assay [3] (read-out: PI3K γ IC50), above 10000 nM; in assay [4] it was below 10 µM.

With `O=C(c1cnc2ccc(-c3cnc4cn[nH]c4c3)cn12)N1CCOCC1` [Compound 535], the concentration for half-maximal inhibition (IC50) was above 10 µM in assay [1], above 10 µM in assay [2], above 10000 nM in assay [3] (read-out: PI3K γ IC50) and below 10 µM in assay [4].

As to `CNc1noc2cc(-c3ccc4ncc(C(=O)N5CCOCC5)n4c3)ccc12` [Compound 486], the 50% inhibitory concentration (IC50) in assay [1] is above 10 µM; in assay [2] it was above 10 µM; in assay [3] (read-out: PI3K γ IC50), below 10000 nM; in assay [4] it was below 10 µM.

Consider `CC(=O)Nc1nc(C)c(-c2ccc3oc(N)nc3c2)s1` [Compound 312], for which the IC50 is below 1 µM in assay [1], below 10 µM in assay [2], below 100 nM in assay [3] (read-out: PI3K γ IC50) and below 1 µM in assay [4].

As to `O=C(c1cnc2ccc(-c3cnc(Cl)c4[nH]ncc34)cn12)N1CCOCC1` [Compound 516], the concentration for half-maximal inhibition (IC50) in assay [1] is above 10 µM; in assay [2] it was above 10 µM; in assay [3] (read-out: PI3K γ IC50), above 10000 nM; in assay [4] it was below 1 µM.

Consider `COc1ncc(-c2ccc3ncn(C4CCN(C)CC4)c(=O)c3c2)cc1NS(=O)(=O)c1ccccc1` [Compound 524], for which the IC50 was below 0.1 µM in assay [1], below 0.1 µM in assay [2], below 1000 nM in assay [3] (read-out: PI3K γ IC50) and below 0.1 µM in assay [4].

Regarding `O=C(c1cnc2ccc(-c3ccc4c(Nc5ccccc5)noc4c3)cn12)N1CCOCC1` [Compound 509], the 50% inhibitory concentration (IC50) is above 10 µM in assay [1], above 10 µM in assay [2], above 10000 nM in assay [3] (read-out: PI3K γ IC50) and above 10 µM in assay [4].

Regarding `CN(C)CCn1cnc2ccc(-c3ccc4oc(N)nc4c3)cc2c1=O` [Compound 292], the IC50 in assay [1] was above 10 µM; in assay [2], above 10 µM; in assay [3] (read-out: PI3K γ IC50) it was above 10000 nM; in assay [4] it was below 10 µM.

Turning to `COc1ncc(-c2ccc3ncc(C(=O)N4CCOCC4)n3c2)cc1NS(=O)(=O)c1ccccc1` [Compound 420], the IC50 in assay [1] is below 1 µM; in assay [2], above 10 µM; in assay [3] (read-out: PI3K γ IC50), below 1000 nM; in assay [4], below 0.1 µM.

On to `Nc1nc2cc(-c3ccc4ncc(N5CCN(C(=O)[C@H]6CCCN6)CC5)nc4c3)ccc2o1` [Compound 225], for which the 50% inhibitory concentration (IC50) was below 0.1 µM in assay [1], below 0.1 µM in assay [2], below 100 nM in assay [3] (read-out: PI3K γ IC50) and below 0.1 µM in assay [4].

In the case of `Nc1nc2cc(-c3cn4c(C(=O)N5CCOCC5)cnc4cn3)ccc2o1` [Compound 122], the 50% inhibitory concentration (IC50) in assay [1] is above 10 µM; in assay [2] it was above 10 µM; in assay [3] (read-out: PI3K γ IC50) it was above 10000 nM; in assay [4], above 10 µM.

`Nc1nc2cc(-c3ccc4ncc(N5CCN(C(=O)CN6CCCC6)CC5)nc4c3)ccc2o1` [Compound 278]: the IC50 was below 10 µM in assay [1], below 1 µM in assay [2], below 1000 nM in assay [3] (read-out: PI3K γ IC50) and below 0.1 µM in assay [4].

Take `C[C@@H]1CN(C2CN(C(=O)c3cnc4ccc(-c5ccc6oc(N)nc6c5)cn34)C2)CCN1C` [Compound 508]: the IC50 in assay [1] was below 1 µM; in assay [2] it was below 10 µM; in assay [3] (read-out: PI3K γ IC50) it was below 10000 nM; in assay [4] it was below 0.1 µM.

With `CC(=O)n1nc(N)c2ccc(-c3ccc4oc(N)nc4c3)cc21` [Compound 426], the half-maximal inhibitory concentration (IC50) is above 10 µM in assay [1], above 10 µM in assay [2], above 10000 nM in assay [3] (read-out: PI3K γ IC50) and above 10 µM in assay [4].

As to `Nc1nc2cc(-c3ccc4ncc(N5CCNCC5)nc4c3)ccc2o1` [Compound 88], the half-inhibitory concentration (IC50) in assay [1] is below 10 µM; in assay [2] it was below 0.1 µM; in assay [3] (read-out: PI3K γ IC50), below 1000 nM; in assay [4], below 0.1 µM.

Take `Nc1nc2cc(-c3ccc4ncc(C(=O)N5CC5)n4c3)ccc2o1` [Compound 340]: the IC50 was above 10 µM in assay [1], above 10 µM in assay [2], below 1000 nM in assay [3] (read-out: PI3K γ IC50) and below 1 µM in assay [4].

Take `Nc1nc2cc(-c3ccc4ncc(C(=O)N5CCN(CCO)CC5)n4c3)ccc2o1` [Compound 148]: the IC50 in assay [1] was above 10 µM; in assay [2] it was above 10 µM; in assay [3] (read-out: PI3K γ IC50), below 10000 nM; in assay [4], below 0.1 µM.

As to `CN1CCC(n2cnc3ccc(-c4cnc(Cl)c(NS(C)(=O)=O)c4)cc3c2=O)CC1` [Compound 526], the IC50 in assay [1] is below 1 µM; in assay [2], below 10 µM; in assay [3] (read-out: PI3K γ IC50), above 10000 nM; in assay [4], below 0.1 µM.

In the case of `Nc1nc2cc(-c3ccc4nccc(-c5ccncc5)c4c3)ccc2s1` [Compound 70], the IC50 is below 0.1 µM in assay [1], below 0.1 µM in assay [2], below 100 nM in assay [3] (read-out: PI3K γ IC50) and below 0.1 µM in assay [4].

As for `Cc1cc(-c2ccc3oc(N)nc3c2)cn2c(C(=O)N3CCOCC3)cnc12` [Compound 448], the IC50 was above 10 µM in assay [1], above 10 µM in assay [2], below 10000 nM in assay [3] (read-out: PI3K γ IC50) and below 1 µM in assay [4].

In the case of `C[C@H](N)C(=O)N1CCN(c2cnc3ccc(-c4ccc5oc(N)nc5c4)cc3n2)CC1` [Compound 207], the half-maximal inhibitory concentration (IC50) is below 1 µM in assay [1], below 0.1 µM in assay [2], below 100 nM in assay [3] (read-out: PI3K γ IC50) and below 0.1 µM in assay [4].

With `CC(C)N1CCN(c2cnc3ccc(-c4ccc5oc(N)nc5c4)cc3n2)C(=O)C1` [Compound 392], the IC50 in assay [1] is above 10 µM; in assay [2], above 10 µM; in assay [3] (read-out: PI3K γ IC50) it was above 10000 nM; in assay [4], above 10 µM.

As to `CNS(=O)(=O)c1cccc(-c2ccc3ncc(C(=O)N4CCOCC4)n3c2)c1` [Compound 442], the IC50 was above 10 µM in assay [1], above 10 µM in assay [2], above 10000 nM in assay [3] (read-out: PI3K γ IC50) and above 10 µM in assay [4].

`Nc1nc2cc(-c3ccc4ncc(C(=O)N5C6CCC5COC6)n4c3)ccc2o1` [Compound 480]: the 50% inhibitory concentration (IC50) in assay [1] is below 10 µM; in assay [2], above 10 µM; in assay [3] (PI3K γ IC50 (nM)), below 1000 nM; in assay [4], below 0.1 µM.

Turning to `Nc1nc2cc(-c3ccc4ncc(N5CCC(F)(F)CC5)nc4n3)ccc2o1` [Compound 564], the IC50 in assay [1] (Table 4 (PI3K α inhibitors)) is above 10 µM; in assay [2] (Table 4 (PI3K α inhibitors)) it was above 10 µM; in assay [3] (Table 4 (PI3K α inhibitors), read-out: PI3K γ IC50), below 100 nM; in assay [4] (Table 4 (PI3K α inhibitors)), below 0.1 µM.
